Laboratory results from patent publication US20130225424A1, “METHODS FOR DETERMINING RESPONSIVENESS TO A DRUG BASED UPON DETERMINATION OF RAS MUTATION AND/OR RAS AMPLIFICATION” (Targeted Molecular Diagnostics, LLC, priority 2010, published 2013).

Columns and labels:
[1] = test system: K-RAS mutant (A549, NCI-H460 & NCI-H23) NSCLC cells; assay: Cyquant Direct proliferation assay, K-RAS mutant NSCLC cells; type: cell-based; conditions: 0-10 μM, 72 hours
Experimental: (§1) Additionally, a variety of NSCLC cell lines that were K-RAS mutant (A549, NCI-H460 & NCI-H23), K-RAS mutant/amplified (NCI-H727 & NCI-H2009) and K-RAS wild-type (Calu-3, NCI-H650 & NC-H661) NSCLC cells were plated in 96 well plates treated and treated 24 hours later with multiple concentrations of Methotrexate (0-10 μM). After an additional 72 hours cells were assayed for proliferation using the Invitrogen Cyquant Direct™ proliferation assay. IC50 (inhibitory concentration that kills 50% of cells) was determined using graphpad software. Cells were treated in triplicate and cell numbers were calculated as percent untreated control.

[2] = test system: K-RAS mutant/amplified (NCI-H727 & NCI-H2009) NSCLC cells; assay: Cyquant Direct proliferation assay, K-RAS mutant/amplified NSCLC cells; type: cell-based; conditions: 0-10 μM, 72 hours
Experimental: as §1

[3] = test system: K-RAS wild-type (Calu-3, NCI-H650 & NC-H661) NSCLC cells; assay: Cyquant Direct proliferation assay, K-RAS wild-type NSCLC cells; type: cell-based; conditions: K-RAS wild-type cells Calu-3, NCI-H650 & NC-H661; 0-10 μM; 72 hours
Experimental: as §1

A549 cells = assay: RT-PCR gene/protein expression after Methotrexate treatment, K-RAS mutant cells; type: cell-based; conditions: 0.1 μM, 72 hours after treatment, normalized to Beta-2-Macroglobulin
Experimental: (§2) Finally, expression of genes/proteins related to folate metabolism and cell cycle progression were examined in K-RAS mutant and K-RAS wild-type NSCLC cells with Methotrexate treatment and K-RAS overexpression or knockdown. Briefly, A549 cells were treated with Methotrexate at a concentration of 0.1 μM. 72 hours after treatment, total RNA was extracted from treated and untreated cells. RT-PCR was then performed on extracted RNA to determine gene expression of K-RAS, Dihydrofolate Reductase (DHFR), Thymidylate Synthase (TYMS) and E2F1. Gene expression was normalized to […] as an internal control.

[4] = test system: K-RAS wild-type NSCLC cells; assay: Gene/protein expression after Methotrexate treatment, K-RAS wild-type cells; type: cell-based
Experimental: as §2

H460 cells = assay: H460 tumors implanted in mice, cleaved caspase-3 staining; type: in vivo; conditions: H460 tumors approx. 500 mg; 130 mg/kg Q4Dx3 IP; harvested 10 days after treatment; cleaved caspase-3 stain
Description: Tumors were then harvested 10 days after treatment, fixed in formalin and stained for cleaved caspase-3. Next, bright-field pictures were taken at 40× (see, FIG. 4).

## CN(Cc1cnc2nc(N)nc(N)c2n1)c1ccc(C(=O)N[C@@H](CCC(=O)O)C(=O)O)cc1 [Methotrexate]
[1]
  sensitivity to Methotrexate (proliferation): sensitive
[2]
  sensitivity to Methotrexate (proliferation): sensitive
[3]
  sensitivity to Methotrexate (proliferation): not sensitive
A549 cells
  Expression of DHFR, TS, E2F-1, phosphorylated Rb and mutant K-RAS: decreased
[4]
  Expression of DHFR, TS, E2F-1, phosphorylated Rb and mutant K-RAS decreased: not
H460 cells
  sensitivity (responsiveness) of tumors with K-Ras mutant cells: sensitive
